Results as given in PMC4629130, “Human Odorant Reception in the Common Bed Bug, Cimex lectularius” (Scientific Reports, 2015).

Experiments:
ClOr2/Orco = target: T1, ClOr2/Orco (Cimex lectularius, UniProt A0A8I6SBL2); test: two-electrode voltage clamp, Xenopus oocytes; type: cell-based
T1 construct: entire coding regions of ClOr2 and ClOrco in pT7Ts, cRNAs co-injected into Xenopus oocytes; heteromeric receptor channel; clusters with Rhodnius RpOr105; with Odorant receptor coreceptor

ClOr1/Orco = target: T2, ClOr1/Orco (Cimex lectularius, UniProt A0A8I6SE58); test: two-electrode voltage clamp, Xenopus oocytes; type: cell-based
T2 construct: entire coding regions of ClOr1 and ClOrco in pT7Ts, cRNAs co-injected into Xenopus oocytes; heteromeric receptor channel; with Odorant receptor coreceptor
T2 sequence (A0A8I6SE58 1-379): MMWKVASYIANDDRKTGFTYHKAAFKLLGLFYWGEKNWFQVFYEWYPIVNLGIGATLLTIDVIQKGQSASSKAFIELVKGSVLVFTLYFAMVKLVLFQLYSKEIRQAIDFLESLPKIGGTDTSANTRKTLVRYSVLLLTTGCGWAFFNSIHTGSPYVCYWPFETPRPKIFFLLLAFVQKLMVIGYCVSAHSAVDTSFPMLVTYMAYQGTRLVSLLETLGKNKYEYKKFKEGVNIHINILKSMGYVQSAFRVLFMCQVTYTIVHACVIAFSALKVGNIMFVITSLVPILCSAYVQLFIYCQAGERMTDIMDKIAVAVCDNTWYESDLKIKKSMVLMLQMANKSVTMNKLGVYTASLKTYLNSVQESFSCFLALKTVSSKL
T2 sequence (A0A0A0U7J0 1-451 partner): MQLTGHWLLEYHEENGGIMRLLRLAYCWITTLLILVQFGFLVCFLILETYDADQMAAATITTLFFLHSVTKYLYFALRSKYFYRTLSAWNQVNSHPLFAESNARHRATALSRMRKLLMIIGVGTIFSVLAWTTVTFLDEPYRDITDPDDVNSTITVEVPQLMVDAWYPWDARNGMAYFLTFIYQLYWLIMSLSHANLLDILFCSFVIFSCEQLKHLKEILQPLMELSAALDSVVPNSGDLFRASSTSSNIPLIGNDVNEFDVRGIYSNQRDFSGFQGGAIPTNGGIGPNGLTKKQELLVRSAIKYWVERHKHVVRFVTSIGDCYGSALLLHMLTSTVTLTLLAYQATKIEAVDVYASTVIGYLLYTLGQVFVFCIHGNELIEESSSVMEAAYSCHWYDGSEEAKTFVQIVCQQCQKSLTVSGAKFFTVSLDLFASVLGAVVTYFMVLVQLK

T1 sequence (A0A8I6SBL2 1-382): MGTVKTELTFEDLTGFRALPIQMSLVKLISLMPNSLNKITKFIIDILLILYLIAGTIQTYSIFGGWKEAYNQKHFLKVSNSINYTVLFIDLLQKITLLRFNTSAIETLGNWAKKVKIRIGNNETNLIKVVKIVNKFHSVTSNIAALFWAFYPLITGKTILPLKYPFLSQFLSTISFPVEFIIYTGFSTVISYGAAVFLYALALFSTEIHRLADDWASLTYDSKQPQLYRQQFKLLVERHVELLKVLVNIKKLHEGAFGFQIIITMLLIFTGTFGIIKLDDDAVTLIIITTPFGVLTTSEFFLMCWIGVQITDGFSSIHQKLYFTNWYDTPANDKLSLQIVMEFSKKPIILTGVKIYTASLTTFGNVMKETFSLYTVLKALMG
T1 sequence (A0A0A0U7J0 1-451 partner): as the sequence (A0A0A0U7J0 1-451 partner) above

`CCCCCCCCCC=O` [decanal] was tested, and the EC50 (ClOr2/Orco) was 6.42 µM.
With `CCCCCCCC=O` [octanal] the EC50 (ClOr1/Orco) was 3.4 µM.
For `CCCCCCCCC=O` [nonanal], the EC50 (ClOr1/Orco) was 0.519 µM.
